pIC50: −log10 of the molar value.
What follows are compounds tested against T1, Human CARM1 (PRMT4) (Homo sapiens, UniProt Q86X55) (assay: CARM1 Biochemical Assay (3H-SAM Flashplate, peptide substrate)). Conditions: 30 min preincubation.
T1 construct: Flag-CARM1-His was eluted with 200 ug/ml FLAG peptide in buffer A; made in house; host or cells: HEK 293F cells (BacMam baculovirus, pFastBacMam)
T1 sequence (Q86X55 1-585 isoform Q86X55-1): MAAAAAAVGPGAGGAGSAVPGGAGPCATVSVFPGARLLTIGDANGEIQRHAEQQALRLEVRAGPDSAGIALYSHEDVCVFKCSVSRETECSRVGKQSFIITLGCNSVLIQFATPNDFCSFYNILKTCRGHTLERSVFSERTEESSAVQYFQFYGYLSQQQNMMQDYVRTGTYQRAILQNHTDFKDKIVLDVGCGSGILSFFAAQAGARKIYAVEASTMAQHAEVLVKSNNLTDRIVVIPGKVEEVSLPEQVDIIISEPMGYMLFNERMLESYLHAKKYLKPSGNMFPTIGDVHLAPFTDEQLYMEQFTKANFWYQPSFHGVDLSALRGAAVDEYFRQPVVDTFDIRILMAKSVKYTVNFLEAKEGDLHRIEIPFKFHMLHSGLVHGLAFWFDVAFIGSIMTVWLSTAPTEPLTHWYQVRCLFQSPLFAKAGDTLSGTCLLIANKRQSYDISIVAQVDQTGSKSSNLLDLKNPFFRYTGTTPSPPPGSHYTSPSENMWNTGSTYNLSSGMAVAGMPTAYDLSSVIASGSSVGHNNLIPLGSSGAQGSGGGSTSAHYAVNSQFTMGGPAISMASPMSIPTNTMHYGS
Description: Peptide representative of human histone H3 residues 16-30 was synthesized with an N-terminal linker-affinity tag motif and a C-terminal amide cap by 21st Century Biochemicals. The peptide was purified by high-performance liquid chromatography (HPLC) to greater than 95% purity and confirmed by liquid chromatography mass spectrometry (LC-MS). The sequence was Biot-Ahx-[…]-amide and contained a monomethylated arginine at position 26 (SEQ ID NO:14).
Human CARM1 (PRMT4) (NM_199141.1) transcript clone was amplified from an HEK 293 cDNA library, incorporating a flanking 5′ sequence encoding a FLAG tag ([…]) (SEQ ID NO:6) fused directly to Ala 2 of CARM1 and 3′ sequence encoding a hexa His sequence ([…]) (SEQ ID NO:15) fused directly to Ser 608. The gene sequence encoding isoform1 containing a deletion of amino acids 539-561 was amplified subsequently and subcloned into pFastBacMam (Viva Biotech).
Column was washed with 500 mM NaCl in buffer A and Flag-CARM1-His was eluted with 200 ug/ml FLAG peptide in buffer A. Pooled fractions were dialyzed in 20 mM Tris, 150 mM NaCl, 5% glycerol and 1 mM DTT, pH 7.8. The purity of recovered protein was 94.
General Procedure for CARM1 Enzyme Assays on Peptide Substrates.
The assays were all performed in a buffer consisting of 20 mM Bicine (pH=7.6), 1 mM TCEP, 0.005% BSG, and 0.002% Tween 20, prepared on the day of use. Compounds in 100% DMSO (1 ul) were spotted into a polypropylene 384-well V-bottom plates (Greiner) using a Platemate Plus outfitted with a 384-channel head (Thermo Scientific). DMSO (1 ul) was added to Columns 11, 12, 23, 24, rows A-H for the maximum signal control and 1 ul of SAH, a known product and inhibitor of CARM1, was added to columns 11, 12, 23, 24, rows I-P for the minimum signal control. A cocktail (40 ul) containing the CARM1 enzyme was added by Multidrop Combi (Thermo-Fisher). The compounds were allowed to incubate with CARM1 for 30 min at room temperature, then a cocktail (10 ul) containing ^3H-SAM and peptide was added to initiate the reaction (final volume=51 ul). The final concentrations of the components were as follows: CARM1 was 0.25 nM, ^3H-SAM was 30 nM, peptide was 250 nM, SAH in the minimum signal control wells was 1 mM, and the DMSO concentration was 2%. The assays were stopped by the addition of non-radiolabeled SAM (10 ul) to a final concentration of 300 uM, which dilutes the ^3H-SAM to a level where its incorporation into the peptide substrate is no longer detectable. 50 ul of the reaction in the 384-well polypropylene plate was then transferred to a 384-well Flashplate and the biotinylated peptides were allowed to bind to the streptavidin surface for at least 1 hour before being washed once with 0.1% Tween20 in a Biotek ELx405 plate washer. The plates were then read in a PerkinElmer TopCount plate reader to measure the quantity of ^3H-labeled peptide bound to the Flashplate surface, measured as disintegrations per minute (dpm) or alternatively, referred to as counts per minute (cpm).
Where dpm=disintegrations per minute, cmpd=signal in assay well, and min and max are the respective minimum and maximum signal controls.
Where top and bottom are the normally allowed to float, but may be fixed at 100 or 0 respectively in a 3-parameter fit. The Hill Coefficient normally allowed to float but may also be fixed at 1 in a 3-parameter fit. Y is the % inhibition and X is the compound concentration.

SMILES	pIC50
CNCCN(C)Cc1c[nH]nc1C#Cc1cccc(OC)c1 [Compound 1]	6.00 to 7.00
CNCCN(C)Cc1c[nH]nc1C#Cc1ccc(C(C)(C)C)cc1 [Compound 2]	6.00 to 7.00
CNCCN(C)Cc1c[nH]nc1C#Cc1ccccc1 [Compound 3]	5.52 to 6.00
CNCCN(C)Cc1c[nH]nc1C#Cc1ccc(F)cc1 [Compound 4]	6.00 to 7.00
CNCCN(C)Cc1c[nH]nc1/C=C/c1ccc(-c2ccccc2)cc1 [Compound 5]	6.00 to 7.00
CNCCN(C)Cc1c[nH]nc1/C=C/c1ccc(C(F)(F)F)cc1 [Compound 6]	6.00 to 7.00
CNCCN(C)Cc1c[nH]nc1/C=C/c1ccc(OC)cc1 [Compound 7]	> 7.00
Cc1ccc(/C=C/c2n[nH]cc2CN(C)CCN)cc1 [Compound 8]	6.00 to 7.00
COc1cc(/C=C/c2n[nH]cc2CN(C)CCN)cc(OC)c1 [Compound 11]	> 7.00
CN(CCN)Cc1c[nH]nc1/C=C/c1ccc(F)cc1F [Compound 13]	6.00 to 7.00
CN(CCN)Cc1c[nH]nc1/C=C/c1cc(C(F)(F)F)cc(C(F)(F)F)c1 [Compound 14]	6.00 to 7.00
CN(CCN)Cc1c[nH]nc1/C=C/c1cc(F)cc(F)c1 [Compound 15]	6.00 to 7.00
CN(CCN)Cc1c[nH]nc1/C=C/c1cccc(C(F)(F)F)c1 [Compound 16]	6.00 to 7.00
COc1cccc(/C=C/c2n[nH]cc2CN(C)CCN)c1 [Compound 17]	> 7.00
CN(CCN)Cc1c[nH]nc1/C=C/c1ccc(C(F)(F)F)cc1 [Compound 18]	> 7.00
COC/C=C/c1n[nH]cc1CN(C)CCN [Compound 19]	5.00 to 5.52
CN(CCN)Cc1c[nH]nc1/C=C/c1cccc(F)c1 [Compound 20]	6.00 to 7.00
CN(CCN)Cc1c[nH]nc1C1CCCCC1 [Compound 22]	5.00 to 5.52
CN(CCN)Cc1c[nH]nc1CCc1ccc(F)cc1 [Compound 23, N^1-((3-(4-fluorophenethyl)-1H-pyrazol-4-yl)methyl)-N^1-methylethane-1,2-diamine]	5.52 to 6.00

From US11185531B2, “Arginine methyltransferase inhibitors and uses thereof” (Epizyme, Inc., priority 2013, dated 2021)
